The values that follow come from patent US10519125B2, “Flavagline derivatives” (PIERRE FABRE MEDICAMENT, priority 2014, dated 2019).

Molecules are shown by their SMILES.

The subject of data set [1] is HCT116 line (human colon cancer cell line). Description: Antiproliferative (cytotoxic) activity on HCT116 line, ATPLite cell viability, 72 hours. Format: cell-based. The note with it: HCT-116, HCT116, 72 hours after addition, ATPLite, read-out: HCT116 (EC50). The procedure:
2.1. Antiproliferative Activity of the Compounds According to the Invention (IC50 in M)
Culture of Lines and Measurement of Cell Viability:
The HCT116 line (ATCC, CCL-247) derived from colon cancer was cultured in MEM (Minimum Essential Medium Eagle) supplemented with 2 mM L-glutamine (Sigma, G7513), 5% fetal calf serum (Sigma, F7524) and antibiotics (Sigma, A59-55). The protocol for determining cytotoxic activity consists in seeding cells on 96-well plates (Perkin Elmer, 6005668) at a density of 1500 cells per well. After 24 hours of incubation, the test compound is applied in each well, using serial dilutions in the solvent dimethylsulfoxide (DMSO) (Sigma, D8418), from 10 mM stock solutions in 100% DMSO. Each dilution was added to the cells 24 hours after seeding. Under these conditions, the final solvent concentration is 0.1% DMSO. A reading of cell proliferation was carried out 72 hours after addition of the products with the ATPLite™ kit (Perkin Elmer, 6016947) and according to the manufacturer's recommendations. The analysis of the proliferation results was carried out by comparison with conditions where only the carrier solvent (culture medium, 0.1% DMSO) was added to the cells. The dose-response curves obtained were analyzed using the PRISM 4.03 software (GraphPad Software Inc.), or by an equivalent analytical method, to determine the concentration of each compound which inhibits 50% of cell proliferation (EC50).
By way of example, the cytotoxic properties of several compounds of the invention evaluated on the HCT116 line (human colon cancer cell line) are reported in Table 1.
(In general: ATP-based viability assays read luminescence as a measure of living cells.)

Data set [2] relates to MDA-MB-231 human tumor xenograft. Nature of the data set: Antitumor activity, subcutaneous MDA-MB-231 breast cancer xenografts in SCID mice. The class given is in vivo. The note with it: for Activity: q1d5 × 3, MDA-MB-231; for Deaths (%): q1d5 × 3, SCID mice. The procedure:
Subcutaneous xenografts were established with MDA-MD-231 breast cancer cells (ATCC: HTB-26) in SCID mice (Harlan, U.K.). The animals were treated and cared after in accordance with the Guide For the Care and Use of Laboratory Animals (National Research Council, 1996) and with European Directive 86/609/EEC, under the supervision of a staff expert authorized to conduct experimental studies with laboratory animals.
All the experiments were conducted pursuant to French and local regulations (Department of Veterinary Services, Haute-Garonne, Toulouse) according to the directives of an ethics committee, based on the UKCCCR Guidelines for the Welfare of Animals in Experimental Neoplasia, as indicated above. The implantation of MDA-MB-231 human tumor fragments is carried subcutaneously in the flanks of SCID mice using a trocar and, for the study of tumor growth, the tumors are allowed to reach a median volume of 70-130 mm^3 before starting the studies.
After randomization in the treatment cages, the inhibitors were administered intravenously according to a g1d5×3 treatment scheme (5 injections per week for 3 weeks). The mice were monitored and weighed daily. The tumors were measured with a slide caliper and the tumor volumes (mm^3) were estimated using the following formula: volume=0.5 (length×width^2). Each experimental group consists of 5 individuals. The efficacy of the treatment was evaluated by analysis of the measurement of the median volume of the treated tumors compared with the median volume of the tumors receiving only carrier (control). The T/C evaluation criterion corresponds to: [(median volume of the treated group, T/median volume of the control group, C)×100]. This T/C ratio is expressed as a percentage. The optimal T/C value corresponds to the ratio which reflects the maximum inhibition of growth obtained during the study. The maximum gains or losses of weight, expressed as a percentage of the initial weight of the animals, as well as the percentage of drug-related deaths (i.e., the percentage of treated animals that died before the assessment) were used to provide an evaluation of the toxicity of the compounds. In accordance with the NCI (National Cancer Institute) criterion, a dose is deemed toxic if it induces weight loss greater than −20% relative to the initial weight of the mouse or if it induces more than 20% deaths (Corbett et al. J Exp Ther Oncol 1996, 1:95-108).

Where [3] appears, read: Mus musculus, MDA-MB-231, iv, read-out: Opt. T/C (%).

As to `COC(=O)[C@H]1[C@@H](O)[C@@]2(O)c3c(OC)cc(O[C@@H]4O[C@@H]([C@H](O)CO)CO[C@H]4OC)cc3O[C@@]2(c2ccc(OC)cc2)[C@@H]1c1ccccc1` [silvestrol, reference compound], in data set [1], the EC50 – broadly, the concentration giving half of the maximal effect – amounted to 2.46 nM. In addition, the Activity entry in data set [2] (0.2 mg/kg intravenously) was “No activity”; in data set [2] (0.5 mg/kg intravenously), “No activity”; in data set [2] (0.7 mg/kg intravenously), “Toxic”; in data set [2] (1 mg/kg intravenously) it was “Toxic”; in data set [2] (1.4 mg/kg intravenously), “Toxic”. For the same compound, the “Deaths (%)” value in data set [2] (0.2 mg/kg intravenously) is given as 0%; in data set [2] (0.5 mg/kg intravenously), 0%; in data set [2] (0.7 mg/kg intravenously), 40%; in data set [2] (1 mg/kg intravenously), 100%; in data set [2] (1.4 mg/kg intravenously), 100%. Also, in data set [2] (setting [3]), the response vs control in vivo at 0.2 mg/kg was found to be 92%. In addition, in data set [2] (setting [3]), the response vs control in vivo at 0.5 mg/kg came out at 83%. Moreover, the response vs control in vivo at 0.7 mg/kg in data set [2] (setting [3]) was 63%. Besides, in data set [2] (above a dose of 0.7 mg/kg), the toxicity entry is recorded as “highly toxic”. In addition, in data set [2] (below a dose of 0.7 mg/kg), the antitumor activity result is “no antitumor activity”.
As for `COc1ccc([C@@]23Oc4cc(OC)cc(OC)c4[C@]2(O)[C@@H]2OC(=S)N[C@@H]2[C@H]3c2ccccc2)cc1` (racemic) [Compound 46, rac-(3aR,4R,4aR,9bS,9cR)-9b-hydroxy-7,9-dimethoxy-4a-(4-methoxyphenyl)-4-phenyl-3,3a,4,4a,9b,9c-hexahydro-2H-benzofuro[3′,2′:3,4]cyclopenta[1,2-d]oxazole-2-thione], the 50% effective concentration (EC50) in data set [1] turned out to be 2.59 nM. In data set [2] (1.4 mg/kg intravenously), the result was Active and the “Deaths (%)” value was 0%. The response vs control in vivo at 1.4 mg/kg in data set [2] (setting [3]) was 39%.
Regarding `COC(=O)[C@H]1[C@@H](O)[C@@]2(O)c3c(OC)cc(OCCN)cc3O[C@@]2(c2ccc(OC)cc2)[C@@H]1c1ccccc1` (racemic) [Compound 2, rac-(1R,2R,3S,3aR,8bS)-methyl 6-(2-aminoethoxy)-1,8b-dihydroxy-8-methoxy-3a-(4-methoxyphenyl)-3-phenyl-2,3,3a,8b-tetrahydro-1H-cyclopenta[b]benzofuran-2-carboxylate], the EC50 in data set [1] is 4.03 nM. In data set [2] (0.2 mg/kg intravenously), the result was Active and the “Deaths (%)” value is listed as 0%. Also, the response vs control in vivo at 0.2 mg/kg in data set [2] (setting [3]) stood at 37%.
Turning to `CN[C@H]1[C@@H](O)[C@@]2(O)c3c(OC)cc(OC)cc3O[C@@]2(c2ccc(OC)cc2)[C@@H]1c1ccccc1` (racemic) [Compound 15, rac-(1R,2R,3R,3aR,8bS)-6,8-dimethoxy-3a-(4-methoxyphenyl)-2-(methylamino)-3-phenyl-1,2,3,3a-tetrahydro-8bH-cyclopenta[b]benzofuran-1,8b-diol], in data set [1], the EC50 worked out at 3.83 nM.
